Data on 27 substances can be found in paper PMC7367873, “Dissecting the sequence determinants for dephosphorylation by the catalytic subunits of phosphatases PP1 and PP2A” (Nature Communications, 2020).

Assay [1] has as its system GFP-14-3-3β and its binding proteins. As to the kind of experiment: GFP-14-3-3β co-IP with LC-MS/MS label-free quantification, untreated versus PP1c-treated. Details: species or system human. The protocol:
(§1) HeLa Kyoto cells expressing transiently transfected pEGFP(C1)-14-3-3β or pEGFP(C1) control plasmid, were incubated with 20 nM Calyculin A (# 9902 S, Cell Signaling Technology) for 12 min. Cells were washed twice on ice with cold PBS and after addition of 500 µL lysis buffer (100 mM NaCl, 10 mM Tris, 0.1% IGEPAL, 1 mM EDTA, 1 mM EGTA, 20 nM Calyculin A, 1x cOmplete Mini protease inhibitor cocktail (Sigma), 1 mM DTT, 1 mM MnCl2) cells were scraped from plates, lysed by 10 pushes through an injection needle (21 G, BD) and the insoluble fraction was pelleted by centrifugation (10 min, 10^4 rcf, 4 °C). Supernatants were then subjected to incubation with 1 µM recombinant phosphatase or buffer for 1 h at 30 °C. Next, we subjected samples to immunoprecipitation using α-GFP nanobodies covalently coupled to agarose beads (2 h, 4 °C, obtained from the EMBL PEPcore Core Facility). Beads were then washed three times with lysis buffer and samples were eluted in 1x LDS sample buffer (Thermo Fisher Scientific) by heating to 70 °C for 10 min.
(§2) The samples were then reduced with 25 mM dithiothreitol (10 min at 70 °C) and alkylated with 55 mM chloroacetamide (room temperature, 30 min, in the dark). Proteins were run on a precast 4–12% NuPAGE gel (ThermoFisher Scientific) for about 1 cm to concentrate the sample prior to in-gel tryptic digestion, which was performed according to the standard procedures. The peptides obtained were dried to completeness and resuspended in 12 µL of buffer A (0.1% FA), and 5 µL of sample were injected per MS measurement. The experiment was carried out in three independent replicates.
(§3) The samples were analyzed by LC-MS/MS on a Dionex Ultimate 3000 nano-HPLC coupled online to a Fusion Lumos Tribrid mass spectrometer (Thermo Fisher Scientific). Peptides were delivered to a trap column (75 µm × 2 cm, packed in-house with 5 µm C18 resin; Reprosil PUR AQ, Dr. Maisch) and washed using 0.1% FA at a flow rate of 5 µL/min for 10 min. Subsequently, peptides were transferred to an analytical column (75 µm × 45 cm, packed in-house with 3 µm C18 resin; Reprosil Gold) applying a flow rate of 300 nL/min and separated using a 60 min linear gradient from 4% to 32% LC solvent B (0.1% FA, 5% DMSO in ACN) in LC solvent A (0.1% FA in 5% DMSO). The eluate from the analytical column was sprayed via a stainless steel emitter (Thermo Fisher Scientific) at a source voltage of 2.1 kV into the mass spectrometer. The transfer capillary was heated to 275 °C. The Fusion Lumos was operated in positive ionization mode and data-dependent acquisition (DDA), automatically switching between MS1 and MS2 spectrum acquisition. Full scan MS1 spectra were recorded in the Orbitrap from 360 to 1300 m/z at a resolution of 60k (automatic gain control (AGC) target value of 4e5 charges, maximum injection time (maxIT) of 50 ms). Up to 20 peptide precursors were isolated (isolation window, 1.7 m/z; maximum injection time, 25 ms; and AGC value, 1e5), fragmented by high-energy collision-induced dissociation (HCD) using 30% normalized collision energy (NCE), and analyzed at a resolution of 15k in the Orbitrap. Precursor ions that were singly charged, unassigned, or with charge states >6+ were excluded. The dynamic exclusion duration of fragmented precursor ions was 20 s.
(§4) Peptide and protein identification and LFQ were performed using MaxQuant software (version 1.6.1.0)[64] by searching the data against all canonical protein sequences as annotated in the Swissprot reference database (human proteins only, 20193 entries, downloaded 22 March 2016, internally annotated with PFAM domains) using the embedded search engine Andromeda[65]. The MaxQuant search was performed using two variable modifications; oxidation of methionine and N-terminal protein acetylation. Carbamidomethylation on cysteines was specified as a fixed modification. Trypsin (Trypsin/P) was specified as the proteolytic enzyme with up to two allowed missed cleavage sites.

For assay [2], the system named is GFP-14-3-3β. As to the kind of experiment: GFP-14-3-3β co-IP with LC-MS/MS, untreated GFP-14-3-3β versus GFP control (14-3-3 interactome). The format is binding, human. On the procedure:
as §1, §2, §3, §4

Setting [3] is: pairwise comparison PP1 vs untreated.
Where [4] appears, read: pairwise comparison untreated vs GFP.
Setting [5] is: GFP-14-3-3β co-IP LC-MS/MS, PP1 vs untreated, student's t-test, label-free quantification, 3 replicates each.
Where [6] appears, read: GFP-14-3-3β co-IP LC-MS/MS, untreated vs GFP, student's t-test, label-free quantification, 3 replicates each.
[7] abbreviates: pairwise comparison PP1 vs untreated, student's t-test, 3 replicates each, LC-MS/MS label-free quantification.
The mark [8] stands for this setting: pairwise comparison untreated GFP-14-3-3β vs GFP, student's t-test, 3 replicates each, LC-MS/MS label-free quantification.
[9] abbreviates: PP1 vs untreated, LFQ intensities, replicates 1-3.
[10] abbreviates: untreated vs GFP, LFQ intensities, replicates 1-3.
[11] abbreviates: PP1 vs untreated, LFQ intensities, 3 replicates each.
Setting [12] is: untreated vs GFP, LFQ intensities, 3 replicates each.

As for ILF2, the “Difference (log2), PP1 vs untreated” value in assay [1] (setting [3]) is listed as -0.07574 log2. Besides, the “Difference (log2), untreated vs GFP” value in assay [2] (setting [4]) came to 3.657 log2.

HSPB1: the “Difference (log2), PP1 vs untreated” value in assay [1] (setting [5]) is -0.1455 log2. In assay [2] (setting [6]), the “Difference (log2), untreated vs GFP” value worked out at 0.3674 log2.

With DENND4C, the “Difference (log2), PP1 vs untreated” value in assay [1] (setting [7]) is -4.253 log2. Moreover, the “Difference (log2), untreated vs GFP” value in assay [2] (setting [8]) worked out at 3.4091 log2.

For the substance DDX21, the “Difference (log2), PP1 vs untreated” value in assay [1] (setting [5]) is given as -0.7087 log2. For the same substance, in assay [2] (setting [6]), the “Difference (log2), untreated vs GFP” value is listed as 2.481 log2.

As for DNMBP, the “Difference (log2), PP1 vs untreated” value in assay [1] (setting [7]) is reported as -4.455 log2. The “Difference (log2), untreated vs GFP” value in assay [2] (setting [8]) is 3.515 log2.

LMO7: the “Difference (log2), PP1 vs untreated” value in assay [1] (setting [7]) is reported as -2.202 log2. The “Difference (log2), untreated vs GFP” value in assay [2] (setting [8]) turned out to be 0.9984 log2.

Take SRSF3: the “Difference (log2), PP1 vs untreated” value in assay [1] (setting [7]) is listed as -2.154 log2. Moreover, the “Difference (log2), untreated vs GFP” value in assay [2] (setting [8]) was determined as 2.78 log2.

For the substance SHROOM3, in assay [1] (setting [7]), the “Difference (log2), PP1 vs untreated” value is reported as -2.387 log2. Moreover, in assay [2] (setting [8]), the “Difference (log2), untreated vs GFP” value came to 4.814 log2.

For the substance DTX3L, the “Difference (log2), PP1 vs untreated” value in assay [1] (setting [3]) is reported as -0.03751 log2. In addition, in assay [2] (setting [4]), the “Difference (log2), untreated vs GFP” value came out at 0.3421 log2.

With CCT3, in assay [1] (PP1 vs untreated, label-free quantification), the “Difference (log2), PP1 vs untreated” value is listed as 0.8223 log2. Besides, the “Difference (log2), untreated vs GFP” value in assay [2] (untreated vs GFP, label-free quantification) amounted to 0.2505 log2.

Regarding SPTBN1, the “Difference (log2), PP1 vs untreated” value in assay [1] (setting [9]) is -1.61 log2. Also, the “Difference (log2), untreated vs GFP” value in assay [2] (setting [10]) is 0.3641 log2.

Turning to RICTOR, in assay [1] (setting [9]), the “Difference (log2), PP1 vs untreated” value is -0.7631 log2. Moreover, the “Difference (log2), untreated vs GFP” value in assay [2] (setting [10]) worked out at 3.3487 log2.

For the substance XRCC6, the “Difference (log2), PP1 vs untreated” value in assay [1] (setting [3]) is on record as -0.1289 log2. For the same substance, the “Difference (log2), untreated vs GFP” value in assay [2] (setting [4]) is -0.01757 log2.

Take ECM29: the “Difference (log2), PP1 vs untreated” value in assay [1] (setting [5]) is listed as -0.2746 log2. Moreover, the “Difference (log2), untreated vs GFP” value in assay [2] (setting [6]) is listed as -0.4278 log2.

On to YWHAG, for which, in assay [1] (setting [9]), the “Difference (log2), PP1 vs untreated” value is -1.2523 log2. Moreover, in assay [2] (setting [10]), the “Difference (log2), untreated vs GFP” value came to 8.569 log2.

Take CHD4: in assay [1] (setting [5]), the “Difference (log2), PP1 vs untreated” value was -0.3658 log2. The “Difference (log2), untreated vs GFP” value in assay [2] (setting [6]) is listed as 2.168 log2.

As to ATP5B, the “Difference (log2), PP1 vs untreated” value in assay [1] (log2 difference, pairwise comparison PP1 vs untreated, label-free quantification, 3 replicates each) was determined as 1.371. Moreover, the “Difference (log2), untreated vs GFP” value in assay [2] (log2 difference, pairwise comparison untreated vs GFP, label-free quantification, 3 replicates each) was -0.3021.

As for CLTC, the “Difference (log2), PP1 vs untreated” value in assay [1] (setting [5]) is reported as -0.2648 log2. In assay [2] (setting [6]), the “Difference (log2), untreated vs GFP” value came to 0.0549 log2.

Regarding SMN1, the “Difference (log2), PP1 vs untreated” value in assay [1] (setting [5]) is -0.1766 log2. In assay [2] (setting [6]), the “Difference (log2), untreated vs GFP” value turned out to be 1.023 log2.

As for EEF1G, in assay [1] (setting [11]), the “Difference (log2), PP1 vs untreated” value was 0.3367 log2. Besides, the “Difference (log2), untreated vs GFP” value in assay [2] (setting [12]) is reported as -0.3337 log2.

Consider KHDRBS1, for which the “Difference (log2), PP1 vs untreated” value in assay [1] (setting [9]) is -0.7597 log2. The “Difference (log2), untreated vs GFP” value in assay [2] (setting [10]) is -0.7979 log2.

In the case of HNRNPK, the “Difference (log2), PP1 vs untreated” value in assay [1] (setting [3]) is 0.05533 log2. Besides, in assay [2] (setting [4]), the “Difference (log2), untreated vs GFP” value came to 0.6096 log2.

With ELAVL1, the “Difference (log2), PP1 vs untreated” value in assay [1] (setting [11]) was 0.612 log2. Moreover, in assay [2] (setting [12]), the “Difference (log2), untreated vs GFP” value is 3.578 log2.

Take ARHGEF5: the “Difference (log2), PP1 vs untreated” value in assay [1] (setting [9]) is listed as -1.778 log2. For the same substance, the “Difference (log2), untreated vs GFP” value in assay [2] (setting [10]) was 3.791 log2.

For NUP205, in assay [1] (setting [5]), the “Difference (log2), PP1 vs untreated” value was -0.6457 log2. Also, the “Difference (log2), untreated vs GFP” value in assay [2] (setting [6]) came out at 1.662 log2.

Consider TECR, for which the “Difference (log2), PP1 vs untreated” value in assay [1] (setting [11]) is 0.5371 log2. In addition, the “Difference (log2), untreated vs GFP” value in assay [2] (setting [12]) was -0.1984 log2.

As for RPA3, the “Difference (log2), PP1 vs untreated” value in assay [1] (setting [9]) was -1.739 log2. In addition, the “Difference (log2), untreated vs GFP” value in assay [2] (setting [10]) was -0.7925 log2.
